Where two headings read alike, the source gives them in different places.
How the values were obtained:
NDM-1 = NDM-1 (Klebsiella pneumoniae, UniProt C7C422); assay: Enzyme activity: determination of IC50, fluorescence assay with CCF2-FA substrate; format: biochemical; settings: CCF2-FA 1.25 μM, 2 hours at 25° C.
Procedure, shortened: (§1)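 Final enzyme levels differed by target: 1 pM NDM-1, 2 pM IMP-1, 30 pM VIM-1. Each was incubated 2 hours at 25° C with test compound and 1.25 μM CCF2-FA, and 460 nm fluorescence (405 nm excitation) was fitted by 4-parameter curve to obtain IC50.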

VIM-1 = VIM-1 (Pseudomonas aeruginosa, UniProt A0A0F7KYQ8); assay: as above; format: biochemical; settings: CCF2-FA 1.25 μM, 2 hours at 25° C.
Procedure, shortened: as §1

IMP-1 = IMP-1 (Serratia marcescens, UniProt P52699); assay: as above; format: biochemical; settings: CCF2-FA 1.25 μM, 2 hours at 25° C.
Procedure, shortened: as §1

[1] = system: Serratia marcescens expressing IMP-1 (CL5741); assay: Antibiotic potentiation activity: synergistic concentration (MITC95) with imipenem, growth by OD600; format: cell-based; settings: 95% inhibition of bacterial growth, strain CL5741
Procedure, shortened: (§2)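 Colonies from overnight agar plates (35 °C) were suspended in saline and diluted 1:100 into 1.1× CAMHB. Inhibitor (final 200 μM to 0.195 μM) was combined with imipenem at 1 or 4 μg/ml, incubated 22–24 h at 35 °C, and absorbance read; MITC95 is the lowest inhibitor concentration giving 95% growth inhibition.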

[2] = system: Klebsiella pneumoniae expressing VIM-1 (IHMA599644); assay: as above; format: cell-based; settings: 95% inhibition of bacterial growth, strain IHMA599644
Procedure, shortened: as §2

[3] = system: Escherichia coli expressing NDM-1 (CLB30005); assay: as above; format: cell-based; settings: 95% inhibition of bacterial growth, strain CLB30005
Procedure, shortened: as §2

[4] = enzyme 1 pM, read-out: NDM1 IC50
[5] = enzyme 30 pM, read-out: VIM1 IC50
[6] = enzyme 2 pM, read-out: IMP1 IC50

Sequence of NDM-1 (C7C422 29-270, looked up, species assumed): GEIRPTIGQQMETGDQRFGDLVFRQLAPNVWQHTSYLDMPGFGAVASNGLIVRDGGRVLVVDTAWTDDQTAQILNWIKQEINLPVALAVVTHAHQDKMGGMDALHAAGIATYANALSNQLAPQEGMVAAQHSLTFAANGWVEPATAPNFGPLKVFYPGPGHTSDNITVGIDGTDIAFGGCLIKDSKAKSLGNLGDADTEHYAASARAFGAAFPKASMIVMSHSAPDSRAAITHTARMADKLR
Sequence of IMP-1 (P52699 19-246, looked up, species assumed): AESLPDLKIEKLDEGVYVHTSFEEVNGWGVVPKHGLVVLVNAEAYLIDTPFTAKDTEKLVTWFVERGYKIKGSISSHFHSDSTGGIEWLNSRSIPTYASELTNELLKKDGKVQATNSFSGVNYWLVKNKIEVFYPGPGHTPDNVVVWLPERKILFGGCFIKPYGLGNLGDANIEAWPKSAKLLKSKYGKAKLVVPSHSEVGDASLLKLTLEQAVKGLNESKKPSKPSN

| SMILES | IC50 (NDM-1; NDM1 IC50, enzyme 1 pM) | IC50 (VIM-1; VIM1 IC50, enzyme 30 pM) | IC50 (IMP-1; IMP1 IC50, enzyme 2 pM) | IMP1 SM5741 MITC95 [1] | VIM1 KP599644 MITC95 [2] | NDM1 EC30005 MITC95 [3] | IC50 (NDM-1; [4]) | IC50 (VIM-1; [5]) | IC50 (IMP-1; [6]) |
| --- | --- | --- | --- | --- | --- | --- | --- | --- | --- |
| CCCC[C@@H](C(=O)O)[C@@H](Cc1ccc(Br)cc1)c1nnn[nH]1 [Example 30, (R)-2-((R)-2-(4-bromophenyl)-1-(1H-tetrazol-5-yl)ethyl)hexanoic acid] | 4700 nM | 240 nM | 220 nM | 50 µM | >200 µM | >200 µM |  |  |  |
| O=C(O)[C@H](CCC1CCCCC1)[C@@H](Cc1ccccc1)c1nnn[nH]1 [Example 31, (2R,3R)-2-(2-cyclohexylethyl)-4-phenyl-3-(1H-tetrazol-5-yl)butanoic acid] |  |  |  | >200 µM | >200 µM | >200 µM | 740 nM | 590 nM | 410 nM |
| O=C(O)[C@@H](CCCCO)[C@H](Cc1ccccc1)c1nnn[nH]1 [Example 32, (S)-6-hydroxy-2-((S)-2-phenyl-1-(1H-tetrazol-5-yl)ethyl)hexanoic acid] |  |  |  | >200 µM | 200 µM | 75 µM | 720 nM | 240 nM | 5000 nM |
| N#CCCCC[C@H](C(=O)O)[C@H](Cc1ccccc1)c1nnn[nH]1 [Example 33, (S)-6-cyano-2-((S)-2-phenyl-1-(1H-tetrazol-5-yl)ethyl)hexanoic acid] |  |  |  | 50 µM | >200 µM | 75 µM | 390 nM | 110 nM | 2100 nM |
| O=C(O)CCCC[C@H](C(=O)O)[C@H](Cc1ccccc1)c1nnn[nH]1 [Example 34, (S)-2-((S)-2-phenyl-1-(1H-tetrazol-5-yl)ethyl)heptanedioic acid] |  |  |  | 200 µM | 200 µM | 25 µM | 200 nM | 40 nM | 1500 nM |
| NC(=O)CCCC[C@H](C(=O)O)[C@H](Cc1ccccc1)c1nnn[nH]1 [Example 35, (S)-7-amino-7-oxo-2-((S)-2-phenyl-1-(1H-tetrazol-5-yl)ethyl)heptanoic acid] |  |  |  | >200 µM | >200 µM | 100 µM | 1400 nM | 210 nM | 3100 nM |
| O=C(O)[C@@H](CCCC1CCNCC1)[C@H](Cc1ccccc1)c1nnn[nH]1 [Example 36, (S)-2-((S)-2-phenyl-1-(1H-tetrazol-5-yl)ethyl)-5-(piperidin-4-yl)pentanoic acid] |  |  |  | 108 µM | 100 µM | 60 µM | 30 nM | 21 nM | 2000 nM |
| O=C(O)[C@@H](CCCCc1ccccc1)[C@H](Cc1ccc2c(c1)OCO2)c1nnn[nH]1 [Example 37, (2S)-2-[(1S)-2-(1,3-benzodioxol-5-yl)-1-(2H-tetrazol-5-yl)ethyl]-6-phenylhexanoic acid] |  |  |  | 106 µM | >200 µM | 200 µM | 27 nM | 10 nM | 120 nM |
| CC(C)CCCCC[C@H](C(=O)O)[C@H](Cc1ccc2c(c1)OCO2)c1nnn[nH]1 [Example 38, (2S)-2-[(1S)-2-(1,3-benzodioxol-5-yl)-1-(2H-tetrazol-5-yl)ethyl]-8-methylnonanoic acid] |  |  |  | 31 µM | >200 µM | 100 µM | 12 nM | 5.5 nM | 49 nM |
| CCCCC[C@H](C(=O)O)[C@H](Cc1ccc2c(c1)OCO2)c1nnn[nH]1 [Example 39, (2S)-2-[(1S)-2-(1,3-benzodioxol-5-yl)-1-(1H-tetrazol-5-yl)ethyl]heptanoic acid] |  |  |  | >200 µM | 100 µM | 75 µM | 86 nM | 11 nM | 210 nM |
| CCC[C@H](C(=O)O)[C@H](Cc1ccc(C#N)cc1)c1nn[nH]n1 [Example 40, (S)-2-((S)-2-(4-cyanophenyl)-1-(2H-tetrazol-5-yl)ethyl)pentanoic acid] |  |  |  | 100 µM | 25 µM | 8.3 µM | 160 nM | 4.3 nM | 2500 nM |
| CCC[C@H](C(=O)O)[C@H](Cc1ccc(C(N)=O)cc1)c1nn[nH]n1 [Example 45, (S)-2-((S)-2-(4-carbamoylphenyl)-1-(2H-tetrazol-5-yl)ethyl)pentanoic acid] |  |  |  | 37.5 µM | 25 µM | 4.2 µM | 93 nM | 3.3 nM | 850 nM |
| CCC[C@H](C(=O)O)[C@H](Cc1ccc(S(C)(=O)=O)cc1)c1nn[nH]n1 [Example 49, (S)-2-((S)-2-(4-(methylsulfonyl)phenyl)-1-(2H-tetrazol-5-yl)ethyl)pentanoic acid] |  |  |  | 37.5 µM | 50 µM | 6.2 µM | 69 nM | 7.6 nM | 720 nM |
| CC[C@H](C)[C@H](C(=O)O)[C@H](Cc1ccc(-c2ccc(-c3nnn[nH]3)cc2)cc1)c1nn[nH]n1 [Example 58, (2S,3S)-2-((S)-2-(4′-(1H-tetrazol-5-yl)-[1,1′-biphenyl]-4-yl)-1-(2H-tetrazol-5-yl)ethyl)-3-methylpentanoic acid] |  |  |  | 12.9 µM | 200 µM | 18.8 µM | < 0.64 nM | 5.1 nM | 1.4 nM |
| CC(C)[C@H](C(=O)O)[C@H](Cc1ccc(C2=CCNCC2)cc1)c1nnn[nH]1 [Example 59, (2S,3S)-2-isopropyl-4-(4-(1,2,3,6-tetrahydropyridin-4-yl)phenyl)-3-(1H-tetrazol-5-yl)butanoic acid] | 9 nM |  |  | 56.2 µM | 150 µM | 12.5 µM |  | 10 nM | 55 nM |
| CCC[C@H](C(=O)O)[C@H](Cc1ccc(Cl)nc1)c1nnn[nH]1 [Example 82, (S)-2-((S)-2-(6-chloropyridin-3-yl)-1-(1H-tetrazol-5-yl)ethyl)pentanoic acid] |  |  |  | 200 µM | 25 µM | 6.2 µM | 240 nM | 5.7 nM | 4600 nM |
| CCC[C@H](C(=O)O)[C@H](Cc1ccc(Cl)cn1)c1nnn[nH]1 [Example 83, (S)-2-((S)-2-(5-chloropyridin-2-yl)-1-(1H-tetrazol-5-yl)ethyl)pentanoic acid] |  |  |  | >200 µM | 100 µM | 8.3 µM | 880 nM | 71 nM | > 20000 nM |
| CCC[C@H](C(=O)O)[C@H](Cc1ccc(-c2ccc3c(c2)CNC3)nc1)c1nnn[nH]1 [Example 95, 5-(5-((2S,3S)-3-carboxy-2-(1H-tetrazol-5-yl)hexyl)pyridin-2-yl)isoindolin-2-ium] |  |  |  | 50 µM | 12.5 µM | 3.1 µM | 160 nM | 6.5 nM | 2500 nM |

From US9839642B2, “Beta-tetrazolyl-propionic acids as metallo-beta-lactamase inhibitors” (priority 2014, dated 2017)
